Experimental data as given in paper doi:10.1101/2023.02.03.527073v1 (biorxiv, 2023).

Columns and labels:
[1] = biological target: T1, human Brd4 BD1 (hBrd4 BD1) (Homo sapiens, UniProt O60885); assay: HTRF competition with biotinylated H4ac4 peptide; assay type: binding
CgBdf1 BD1 (CgBD1) [2] = biological target: T2, CgBdf1 BD1 (CgBD1) (Nakaseomyces glabratus, UniProt Q6FWV7); assay: HTRF competition with biotinylated H4ac4 peptide; assay type: binding
T2 sequence (Q6FWV7 100-228): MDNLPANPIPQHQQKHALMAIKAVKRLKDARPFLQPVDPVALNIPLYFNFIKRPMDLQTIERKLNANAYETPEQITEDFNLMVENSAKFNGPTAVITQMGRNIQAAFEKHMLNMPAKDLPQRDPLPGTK

[3] = biological target: T3, human Brd4 BD2 (hBrd4 BD2) (Homo sapiens, UniProt O60885); assay: HTRF competition with biotinylated H4ac4 peptide; assay type: binding
CgBdf1 BD2 (CgBD2) [4] = biological target: T4, CgBdf1 BD2 (CgBD2) (Nakaseomyces glabratus, UniProt Q6FWV7); assay: HTRF competition with biotinylated H4ac4 peptide; assay type: binding
T4 sequence (Q6FWV7 269-391): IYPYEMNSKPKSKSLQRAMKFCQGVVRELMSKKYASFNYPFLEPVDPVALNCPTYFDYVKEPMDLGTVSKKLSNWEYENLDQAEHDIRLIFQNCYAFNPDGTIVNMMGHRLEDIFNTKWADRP

CgBdf1 BD1 (CgBD1) [5] = biological target: T2, CgBdf1 BD1 (CgBD1); assay: biochemical
CgBdf1 BD2 (CgBD2) [6] = biological target: T4, CgBdf1 BD2 (CgBD2); assay: biochemical
[7] = biological target: T1, human Brd4 BD1 (hBrd4 BD1); assay: biochemical
[8] = biological target: T3, human Brd4 BD2 (hBrd4 BD2); assay: biochemical

Row | IC50 [1] [nM] | IC50 (CgBdf1 BD1 (CgBD1) [2]) [nM] | IC50 [3] [nM] | IC50 (CgBdf1 BD2 (CgBD2) [4]) [nM] | IC50 (CgBdf1 BD1 (CgBD1) [5]) [nM] | IC50 (CgBdf1 BD2 (CgBD2) [6]) [nM] | IC50 [7] [nM] | IC50 [8] [nM] | Structure (SMILES)
1 | > 20000 | 2230 ± 260 | > 20000 | > 20000 |  |  |  |  | Cc1ccc(-c2nnc(C)c(NCc3cccs3)n2)cc1 [compound 24, 24]
2 |  | 1810 ± 1140 |  | 2060 ± 230 | 1100 | 2300 | 2900 | 440 | CC(=O)N1CCc2[nH]c3ccc(C(=O)Nc4ccc(N5CCOCC5)cc4)cc3c2C1 [compound 29, 29]
3 | 25900 ± 7900 | 610 ± 100 |  |  |  |  | > 20000 |  | Cn1nccc1C(=O)NCc1ccc(-c2nc(-c3cccs3)no2)s1 [compound 63, 63]
